Results: patent publication US12251379B2, “Methods of inhibiting formation of alpha synuclein aggregates” (THE REGENTS OF THE UNIVERSITY OF CALIFORNIA, priority 2018, dated 2025)

How the values were obtained:
sEH = sEH (Homo sapiens (Human), UniProt P34913); conditions: cited from earlier work
[1] = system: MPTP-induced neurotoxicity in the mouse SN; conditions: cited from earlier work
[2] = PTZ induced seizure model; Example 52 and FIG. 7 of WO 2015/148954; cited from earlier work
[3] = system: ER stress, oxidative stress, sEH and α-synuclein proteins in the mouse striatum; assay: Western blot analysis of mouse striatum after MPTP; type: in vivo
Method: Western blot analysis of mouse brain samples. Western blot analysis was performed as reported previously (53,56). Mice were killed by cervical dislocation and brains were rapidly removed from the skull, and the striatum of mice were dissected on ice. The tissue samples were homogenized in Laemmli lysis buffer. […] Proteins were transferred onto polyvinylidenedifluoride (PVDF) membranes using a Trans Blot Mini Cell (Bio-Rad). For immunodetection, the blots were blocked with 2% BSA in TBST (TBS+0.1% Tween-20) for 1 h at room temperature (RT), and kept with primary antibodies overnight at 4° C. […] After final three washes with TBST, bands were detected using enhanced chemiluminescence (ECL) plus the Western Blotting Detection system (GE Healthcare Bioscience). Images were captured with a ChemDoc imaging system (Bio-Rad), and the immunoreactive bands were analysis by Image Lab software.

[4] = system: eicosanoids metabolites in the striatum; assay: Oxylipin profiling of striatum from MPTP-treated mice; type: in vivo, mouse; conditions: MPTP 10 mg/kg×3 IP, 7 days after injection; mean +/− SEM
Method: Oxylipin profiling. […] Striatum was dissected from brain, and the samples were stored at −80° C. before assay. Measurement of eicosanoids was performed using the previous method (59).

[5] = system: MPTP-induced neurotoxicity in the striatum and SN; assay: MPTP-induced mouse model of PD: immunohistochemistry of DAT and TH; conditions: MPTP 10, 15, or 20 mg/kg ×3 IP, 2-h intervals; 7 days after injection
[6] = pH 7.4; cited from earlier work

Chain of sEH (P34913 whole entry): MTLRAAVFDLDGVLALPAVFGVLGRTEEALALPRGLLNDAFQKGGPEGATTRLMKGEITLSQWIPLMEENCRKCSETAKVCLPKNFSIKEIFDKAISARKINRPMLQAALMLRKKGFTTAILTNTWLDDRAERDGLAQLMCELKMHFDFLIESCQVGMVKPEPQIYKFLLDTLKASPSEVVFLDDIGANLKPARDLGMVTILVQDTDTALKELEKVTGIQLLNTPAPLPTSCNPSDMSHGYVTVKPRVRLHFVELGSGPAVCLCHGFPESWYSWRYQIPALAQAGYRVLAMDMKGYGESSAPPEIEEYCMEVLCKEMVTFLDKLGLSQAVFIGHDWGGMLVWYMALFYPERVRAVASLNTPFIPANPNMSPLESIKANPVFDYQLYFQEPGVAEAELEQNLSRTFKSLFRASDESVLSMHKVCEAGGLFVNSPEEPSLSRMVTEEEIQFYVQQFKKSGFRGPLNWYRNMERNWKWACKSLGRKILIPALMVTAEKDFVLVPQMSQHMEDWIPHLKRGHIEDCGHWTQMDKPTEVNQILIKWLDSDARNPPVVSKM

CCCCCCCCCCCCNC(=O)NC12CC3CC(CC(C3)C1)C2 [ADU, N-Adamantyl-N′-dodecyl urea]
activity on sEH (sEH): particularly high activity

O=C(O)CCCCCCCCCCCNC(=O)NC12CC3CC(CC(C3)C1)C2 [AUDA, 12-(3-Adamantan-1-yl-ureido)dodecanoic acid]
MPTP-induced neurotoxicity, posttreatment ([1]; posttreatment): did not attenuate | MPTP-induced loss of TH-positive cells in the mouse SN, pretreatment ([1]; pretreatment): attenuated

O=C(Nc1ccc(OC(F)(F)F)c(F)c1)NC1CCN(C(=O)C2CCOCC2)CC1 [Compound 29, 1-(3-fluoro-4-(trifluoromethoxy)phenyl)-3-(1-(tetrahydro-2H-pyran-4-carbo-nyl)piperidin-4-yl)urea]
crossing of the blood-brain barrier [2]: cross the blood-brain barrier

CN1CC=C(c2ccccc2)CC1 [MPTP, 1-methyl-4-phenyl-1,2,3,6-tetrahydropyridine]
phosphorylated α-synuclein/α-synuclein ratio in the striatum compared with control mice ([3]; MPTP 10 mg/kg×3): significant increase | expression of GSH, iNOS, and SOD in the striatum ([3]; MPTP 10 mg/kg×3, 7 days after injection): alterations | sEH protein in the striatum compared with control mice ([3]; MPTP 10 mg/kg×3, three or 7 days after injections): significant increase | Level of 5(6)-EpETrE in the striatum [4]: 544.908 ± 19.111 | Level of 6-keto-PGF1a in the striatum [4]: 20.015 ± 1.352 | Level of 8(9)-EpETrE in the striatum [4]: 19.048 ± 1.310 | Level of 9(10)-EpOME in the striatum [4]: 6.641 ± 0.431 | Level of 9,10,13-TriHOME in the striatum [4]: 33.635 ± 2.452 | Level of 9,10-DiHOME in the striatum [4]: 1.346 ± 0.158 | Level of 9,12,13-TriHOME in the striatum [4]: 59.487 ± 4.168 | Level of 9-HODE in the striatum [4]: 41.360 ± 3.045 | Level of 9-oxo-ODE in the striatum [4]: 46.977 ± 5.160 | Level of 10(11)-EpDPE in the striatum [4]: 9.530 ± 0.829 | Level of 11(12)-EpETrE in the striatum [4]: 61.583 ± 4.605 | Level of 11-HETE in the striatum [4]: 114.056 ± 5.188 | Level of 12(13)-EpOME in the striatum [4]: 7.073 ± 0.689 | Level of 12,13-DIHOME in the striatum [4]: 8.348 ± 1.710 | Level of 12-HETE in the striatum [4]: 136.621 ± 26.845 | Level of 13-HODE in the striatum [4]: 58.399 ± 5.240 | Level of 14(15)-EpETrE in the striatum [4]: 77.976 ± 11.479 | Level of 15,16-DiHODE in the striatum [4]: 3.667 ± 0.609 | Level of 15-HETE in the striatum [4]: 129.113 ± 6.703 | Level of 19,20-DiHDPE in the striatum [4]: 5.310 ± 0.523 | Level of EKODE in the striatum [4]: 23.007 ± 4.170 | Level of PGD2 in the striatum [4]: 127.452 ± 4.968 | Level of PGE2 in the striatum [4]: 13.830 ± 1.069 | Level of PGF2a in the striatum [4]: 160.704 ± 7.212 | Level of TXB2 in the striatum [4]: 98.406 ± 4.740 | DAT and TH density in the striatum and TH-positive cell number in the SN compared with control mice [5]: significant reductions

CC[C@H](C)C(=O)N1CCC(NC(=O)Nc2ccc(OC(F)(F)F)c(F)c2)CC1 [compound 26]
w.s. (water solubility) [6]: 1 µM
